Patent US20220089733A1, “NOVEL APPROACH FOR TREATMENT OF CANCER USING IMMUNOMODULATION” (BioXcel Therapeutics, Inc., priority 2018, published 2022)

Tests used:
melanoma = melanoma patients; cited from earlier work
[1] = in vivo; cited from earlier work
CYP3A4 [2] = test system: CYP3A4
CYP3A4 [3] = target: CYP3A4 (Homo sapiens, UniProt P08684)
CYP2C19 = CYP2C19 (Homo sapiens, UniProt P33261)
CYP2C9 = CYP2C9 (Homo sapiens, UniProt P11712)
CYP1A2 [4] = test system: CYP1A2
CYP2C8 = target: T1, CYP2C8 (Homo sapiens, UniProt P10632)
T1 sequence (P10632 1-490): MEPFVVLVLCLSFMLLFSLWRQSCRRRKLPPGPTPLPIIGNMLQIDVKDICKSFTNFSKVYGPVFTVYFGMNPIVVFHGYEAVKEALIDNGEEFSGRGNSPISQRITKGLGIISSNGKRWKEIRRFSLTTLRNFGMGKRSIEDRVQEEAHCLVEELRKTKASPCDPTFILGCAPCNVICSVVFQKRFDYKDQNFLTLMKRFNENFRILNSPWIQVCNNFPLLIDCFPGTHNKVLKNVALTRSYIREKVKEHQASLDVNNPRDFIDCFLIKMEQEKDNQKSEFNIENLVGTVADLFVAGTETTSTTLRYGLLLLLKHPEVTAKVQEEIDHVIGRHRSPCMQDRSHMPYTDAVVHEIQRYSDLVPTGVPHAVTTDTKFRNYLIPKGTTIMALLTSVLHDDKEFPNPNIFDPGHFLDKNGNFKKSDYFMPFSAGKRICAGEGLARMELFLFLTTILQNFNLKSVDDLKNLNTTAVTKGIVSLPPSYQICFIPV

CYP2D6 = CYP2D6 (Homo sapiens, UniProt P10635)
CYP1A2 [5] = target: CYP1A2 (Homo sapiens, UniProt P05177); settings: human liver CYP isoenzymes; preclinical studies
Sequence of CYP1A2 (Homo sapiens, UniProt P05177) (P05177 whole entry): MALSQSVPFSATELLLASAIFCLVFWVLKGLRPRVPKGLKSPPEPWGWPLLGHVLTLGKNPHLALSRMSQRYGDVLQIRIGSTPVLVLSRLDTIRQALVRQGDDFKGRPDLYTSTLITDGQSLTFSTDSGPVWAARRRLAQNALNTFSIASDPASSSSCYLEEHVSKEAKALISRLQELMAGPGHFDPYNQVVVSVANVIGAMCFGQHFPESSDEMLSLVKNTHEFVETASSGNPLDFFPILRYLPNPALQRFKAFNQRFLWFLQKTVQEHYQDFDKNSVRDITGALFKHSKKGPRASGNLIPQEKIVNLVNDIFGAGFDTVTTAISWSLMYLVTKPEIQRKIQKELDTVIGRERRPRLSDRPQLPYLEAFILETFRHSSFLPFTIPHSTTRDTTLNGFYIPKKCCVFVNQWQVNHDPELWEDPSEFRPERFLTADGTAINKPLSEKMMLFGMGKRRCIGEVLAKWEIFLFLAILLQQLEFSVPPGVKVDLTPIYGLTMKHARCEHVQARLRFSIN

Sequence of CYP2C9 (P11712 whole entry): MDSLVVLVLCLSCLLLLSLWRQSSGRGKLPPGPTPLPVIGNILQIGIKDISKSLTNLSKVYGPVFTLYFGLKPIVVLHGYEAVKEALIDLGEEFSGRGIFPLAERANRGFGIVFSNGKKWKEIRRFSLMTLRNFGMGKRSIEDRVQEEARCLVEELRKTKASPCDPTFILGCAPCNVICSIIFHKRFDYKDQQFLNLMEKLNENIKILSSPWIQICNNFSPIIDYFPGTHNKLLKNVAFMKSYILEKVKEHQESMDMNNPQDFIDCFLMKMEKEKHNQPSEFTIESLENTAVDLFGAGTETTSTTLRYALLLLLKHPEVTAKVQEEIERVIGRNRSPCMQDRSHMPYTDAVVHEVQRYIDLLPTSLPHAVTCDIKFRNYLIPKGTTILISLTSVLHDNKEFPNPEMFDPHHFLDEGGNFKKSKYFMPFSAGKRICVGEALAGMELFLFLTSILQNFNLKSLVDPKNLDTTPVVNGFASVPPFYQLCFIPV
Sequence of CYP3A4 (Homo sapiens, UniProt P08684) (P08684 whole entry): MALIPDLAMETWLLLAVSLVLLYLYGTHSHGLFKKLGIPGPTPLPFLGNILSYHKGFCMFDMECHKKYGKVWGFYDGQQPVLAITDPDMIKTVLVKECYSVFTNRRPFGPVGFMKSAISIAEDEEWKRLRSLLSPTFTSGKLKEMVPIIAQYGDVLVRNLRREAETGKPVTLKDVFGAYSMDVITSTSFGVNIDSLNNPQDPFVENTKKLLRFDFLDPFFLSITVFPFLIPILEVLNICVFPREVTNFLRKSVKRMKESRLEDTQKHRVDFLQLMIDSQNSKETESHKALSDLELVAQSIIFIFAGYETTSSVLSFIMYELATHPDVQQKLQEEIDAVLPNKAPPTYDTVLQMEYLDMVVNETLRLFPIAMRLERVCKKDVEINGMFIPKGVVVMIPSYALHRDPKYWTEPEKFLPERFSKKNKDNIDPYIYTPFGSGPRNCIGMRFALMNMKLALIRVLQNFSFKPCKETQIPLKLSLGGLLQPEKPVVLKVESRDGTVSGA
Sequence of CYP2D6 (P10635 whole entry): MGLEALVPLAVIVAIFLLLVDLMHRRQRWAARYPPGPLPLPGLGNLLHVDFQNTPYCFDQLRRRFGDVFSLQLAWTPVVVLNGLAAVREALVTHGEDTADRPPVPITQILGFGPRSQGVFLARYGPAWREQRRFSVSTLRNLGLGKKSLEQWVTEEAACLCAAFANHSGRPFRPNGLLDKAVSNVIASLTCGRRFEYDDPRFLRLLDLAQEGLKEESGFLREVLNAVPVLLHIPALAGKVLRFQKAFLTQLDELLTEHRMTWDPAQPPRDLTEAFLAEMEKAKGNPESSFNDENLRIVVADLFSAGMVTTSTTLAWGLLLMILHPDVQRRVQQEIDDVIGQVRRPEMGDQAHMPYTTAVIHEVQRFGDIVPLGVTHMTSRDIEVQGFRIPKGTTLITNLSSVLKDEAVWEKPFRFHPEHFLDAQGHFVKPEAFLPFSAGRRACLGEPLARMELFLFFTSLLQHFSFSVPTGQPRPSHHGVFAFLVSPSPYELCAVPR
Sequence of CYP2C19 (P33261 whole entry): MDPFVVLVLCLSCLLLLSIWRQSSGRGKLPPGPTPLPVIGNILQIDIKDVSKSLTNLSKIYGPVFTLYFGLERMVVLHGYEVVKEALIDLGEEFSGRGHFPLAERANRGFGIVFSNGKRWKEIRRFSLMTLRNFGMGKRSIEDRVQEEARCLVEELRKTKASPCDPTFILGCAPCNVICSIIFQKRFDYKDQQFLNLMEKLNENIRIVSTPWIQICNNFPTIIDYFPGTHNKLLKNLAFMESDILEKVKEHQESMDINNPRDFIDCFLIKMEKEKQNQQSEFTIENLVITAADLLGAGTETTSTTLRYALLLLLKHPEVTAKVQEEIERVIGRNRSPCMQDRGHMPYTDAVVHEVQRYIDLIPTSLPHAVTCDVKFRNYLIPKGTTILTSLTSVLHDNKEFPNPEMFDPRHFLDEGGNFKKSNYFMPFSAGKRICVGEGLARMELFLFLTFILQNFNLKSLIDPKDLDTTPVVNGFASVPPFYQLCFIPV

Ipilimumab: CTLA-4 antagonist antibody, checkpoint inhibitor
Response rate (melanoma): 11%

CC(C)[C@H](N)C(=O)N1CCC[C@H]1B(O)O [Talabostat, [(2R)-1-[(2S)-2-amino-3-methylbutanoyl]pyrrolidin-2-yl]boronic acid]
Most common / most frequently observed adverse events [1]: edema/peripheral swelling, hypotension, hypovolemia, and dizziness

Nivolumab: PD-1 antagonist antibody, checkpoint inhibitor
Response rate (melanoma): 32%

Talabostat mesylate
Induction of CYP3A4 (CYP3A4 [2]): did not induce | Most common / most frequently observed adverse events [1]: edema/peripheral swelling, hypotension, dizziness, and hypovolemia | Potential to inhibit CYP3A4 (CYP3A4 [3]): low potential | Potential to inhibit CYP2C19 (CYP2C19): low potential | Potential to inhibit CYP2C9 (CYP2C9): low potential | Induction of CYP1A2 (CYP1A2 [4]): did not induce | Potential to inhibit CYP2C8 (CYP2C8): low potential | Potential to inhibit CYP2D6 (CYP2D6): low potential | Potential to inhibit CYP1A2 (CYP1A2 [5]): low potential
